Reference: patent US20230085307A1, “PYRIDAZINONE COMPOUND AND HERBICIDE” (NISSAN CHEMICAL CORPORATION, priority 2019, published 2023)

These molecules were tested on barnyard grass (assay: Test Example 5: herbicidal effect by foliage application, plastic box (Table 20, symbol H)). Settings: foliage application, 320 g/ha, 3 weeks after application.
Format: in vivo, barnyard grass (Echinochloa crus-galli)
Procedure, shortened: (§1)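 Plants sown in sterilized diluvial soil and grown 14 days in a greenhouse at 25° C to 30° C, then sprayed on the foliage with the compound's emulsion diluted in water to a predetermined herbicide amount. Injury to weeds and crops scored three weeks after application on a visual rating scale.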

Row | Structure (SMILES) | effect on barnyard grass (H)
1 | Cc1nn(C)c(=O)c(-c2c(-c3ccc(OC(F)F)cc3)sc3ccccc23)c1O [1-201] | 5 (Herbicidal rate of 90% or more (almost completely withered))
2 | CCCOc1ccc(-c2sc3ccc(F)cc3c2-c2c(OC(=O)CCC)c(C)nn(C)c2=O)cc1 [2-033] | 5 (Herbicidal rate of 90% or more (almost completely withered))
3 | Cc1nn(C)c(=O)c(-c2c(-c3ccc(F)cc3)sc3ccc(F)cc23)c1O [2-001] | 5 (Herbicidal rate of 90% or more (almost completely withered))

What follows are molecules tested on wild oat (assay: Test Example 5: herbicidal effect by foliage application, plastic box (Table 20, symbol I)). Settings: foliage application, 320 g/ha, 3 weeks after application.
Format: in vivo, wild oat (Avena fatua)
Procedure, shortened: as §1

Row | Structure (SMILES) | effect on wild oat (I)
4 | Cc1nn(C)c(=O)c(-c2c(-c3ccc(OC(F)F)cc3)sc3ccccc23)c1O [1-201] | 2 (Herbicidal rate of 20% or more and less than 40%)
5 | CCCOc1ccc(-c2sc3ccc(F)cc3c2-c2c(OC(=O)CCC)c(C)nn(C)c2=O)cc1 [2-033] | 0 (Herbicidal rate of 5% or less (almost no effect))
6 | Cc1nn(C)c(=O)c(-c2c(-c3ccc(F)cc3)sc3ccc(F)cc23)c1O [2-001] | 5 (Herbicidal rate of 90% or more (almost completely withered))

These molecules were tested on redroot pigweed (assay: Test Example 4: herbicidal effect by soil treatment (Table 19, symbol N)). Settings: 320 g/ha.
Format: in vivo, redroot pigweed (Amaranthus retroflexus)
Procedure, shortened: (§2)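 Seeds were sown in sterilized diluvial soil and covered with about 1.5 cm of soil. An emulsion formulation diluted with water to a predetermined herbicide amount was sprayed evenly onto the soil surface. Plants grew in a greenhouse at 25° C. to 30° C., and the effect was scored three weeks after application using criteria from an earlier test.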

Row | Structure (SMILES) | herbicidal effect rating, N: redroot pigweed
7 | CCCOc1ccc(-c2sc3ccc(F)cc3c2-c2c(OC(=O)CCC)c(C)nn(C)c2=O)cc1 [2-033] | 5 (Herbicidal rate of 90% or more (almost completely withered))

Same assay, conditions: AAH 320 g/ha

Row | Structure (SMILES) | N: redroot pigweed, herbicidal effect rating
8 | Cc1nn(C)c(=O)c(-c2c(-c3ccc(OC(F)F)cc3)sc3ccccc23)c1O [1-201] | 5 (Herbicidal rate of 90% or more (almost completely withered))
9 | Cc1nn(C)c(=O)c(-c2c(-c3ccc(F)cc3)sc3ccc(F)cc23)c1O [2-001] | 5 (Herbicidal rate of 90% or more (almost completely withered))

The molecules below were run on wild oat (assay: Test Example 4: herbicidal effect by soil treatment (Table 19, symbol I)). Settings: 320 g/ha.
Format: in vivo, wild oat (Avena fatua)
Procedure, shortened: as §2

Row | Structure (SMILES) | herbicidal effect rating, I: wild oat
10 | CCCOc1ccc(-c2sc3ccc(F)cc3c2-c2c(OC(=O)CCC)c(C)nn(C)c2=O)cc1 [2-033] | 0 (Herbicidal rate of 5% or less (almost no effect))

Same assay, conditions: AAH 320 g/ha

Row | Structure (SMILES) | I: wild oat, herbicidal effect rating
11 | Cc1nn(C)c(=O)c(-c2c(-c3ccc(OC(F)F)cc3)sc3ccccc23)c1O [1-201] | 0 (Herbicidal rate of 5% or less (almost no effect))
12 | Cc1nn(C)c(=O)c(-c2c(-c3ccc(F)cc3)sc3ccc(F)cc23)c1O [2-001] | 3 (Herbicidal rate of 40% or more and less than 70%)

Each molecule was assayed on green foxtail (assay: Test Example 5: herbicidal effect by foliage application, plastic box (Table 20, symbol G)). Settings: foliage application, 320 g/ha, 3 weeks after application.
Format: in vivo, green foxtail (Setaria viridis)
Procedure, shortened: as §1

Row | Structure (SMILES) | effect on green foxtail (G)
13 | Cc1nn(C)c(=O)c(-c2c(-c3ccc(OC(F)F)cc3)sc3ccccc23)c1O [1-201] | 5 (Herbicidal rate of 90% or more (almost completely withered))
14 | CCCOc1ccc(-c2sc3ccc(F)cc3c2-c2c(OC(=O)CCC)c(C)nn(C)c2=O)cc1 [2-033] | 5 (Herbicidal rate of 90% or more (almost completely withered))
15 | Cc1nn(C)c(=O)c(-c2c(-c3ccc(F)cc3)sc3ccc(F)cc23)c1O [2-001] | 5 (Herbicidal rate of 90% or more (almost completely withered))

What follows are molecules tested on green foxtail (assay: Test Example 4: herbicidal effect by soil treatment (Table 19, symbol G)). Settings: 320 g/ha.
Format: in vivo, green foxtail (Setaria viridis)
Procedure, shortened: as §2

Row | Structure (SMILES) | herbicidal effect rating, G: green foxtail
16 | CCCOc1ccc(-c2sc3ccc(F)cc3c2-c2c(OC(=O)CCC)c(C)nn(C)c2=O)cc1 [2-033] | 0 (Herbicidal rate of 5% or less (almost no effect))

Same assay, conditions: AAH 320 g/ha

Row | Structure (SMILES) | G: green foxtail, herbicidal effect rating
17 | Cc1nn(C)c(=O)c(-c2c(-c3ccc(OC(F)F)cc3)sc3ccccc23)c1O [1-201] | 5 (Herbicidal rate of 90% or more (almost completely withered))
18 | Cc1nn(C)c(=O)c(-c2c(-c3ccc(F)cc3)sc3ccc(F)cc23)c1O [2-001] | 4 (Herbicidal rate of 70% or more and less than 90%)

These molecules were tested on blackgrass (assay: Test Example 5: herbicidal effect by foliage application, plastic box (Table 20, symbol J)). Settings: foliage application, 320 g/ha, 3 weeks after application.
Format: in vivo, blackgrass (Alopecurus myosuroides)
Procedure, shortened: as §1

Row | Structure (SMILES) | effect on blackgrass (J)
19 | Cc1nn(C)c(=O)c(-c2c(-c3ccc(OC(F)F)cc3)sc3ccccc23)c1O [1-201] | 4 (Herbicidal rate of 70% or more and less than 90%)
20 | CCCOc1ccc(-c2sc3ccc(F)cc3c2-c2c(OC(=O)CCC)c(C)nn(C)c2=O)cc1 [2-033] | 3 (Herbicidal rate of 40% or more and less than 70%)
21 | Cc1nn(C)c(=O)c(-c2c(-c3ccc(F)cc3)sc3ccc(F)cc23)c1O [2-001] | 4 (Herbicidal rate of 70% or more and less than 90%)

The molecules below were run on Japanese bulrush (assay: Test Example 1: herbicidal activity, application before weed generation under submerged conditions (Table 16, symbol B)). Settings: 320 g/ha applied herbicide.
Format: in vivo, Japanese bulrush (Schoenoplectus juncoides)
Procedure, shortened: (§3)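 Alluvial soil was flooded to 4 cm depth, weed seeds were sown mixed and 2.5-leaf rice seedlings were transplanted. On sowing day, the compound's emulsion, diluted in water to a set dose, was applied to the water surface. Plants grew at 25–30 °C and were scored 0–5 after three weeks.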

Row | Structure (SMILES) | Herbicidal effect on B: Japanese bulrush (grade 0-5)
22 | Cc1nn(C)c(=O)c(-c2c(-c3ccc(OC(F)F)cc3)sc3ccccc23)c1O [1-201] | 4 (Herbicidal rate of 70% or more and less than 90%)
23 | CCCOc1ccc(-c2sc3ccc(F)cc3c2-c2c(OC(=O)CCC)c(C)nn(C)c2=O)cc1 [2-033] | 5 (Herbicidal rate of 90% or more (almost completely withered))
24 | Cc1nn(C)c(=O)c(-c2c(-c3ccc(F)cc3)sc3ccc(F)cc23)c1O [2-001] | 3 (Herbicidal rate of 40% or more and less than 70%)

What follows are molecules tested on oval-leafed pondweed (assay: Test Example 2: herbicidal activity, application during weed generation under submerged conditions (Table 17, symbol C)). Settings: AAH 320 g/ha; application during weed generation, submerged conditions.
Format: in vivo, oval-leafed pondweed (Monochoria vaginalis)
Procedure, shortened: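 Mixed weed seedlings in alluvial soil under a 4 cm water layer, greenhouse-grown at 25–30° C. Compound given as a diluted emulsion into the floodwater at the 1–2 leaf stage; response graded after three weeks.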

Row | Structure (SMILES) | herbicidal effect rating, C: oval-leafed pondweed
25 | Cc1nn(C)c(=O)c(-c2c(-c3ccc(OC(F)F)cc3)sc3ccccc23)c1O [1-201] | 3 (Herbicidal rate of 40% or more and less than 70%)
26 | CCCOc1ccc(-c2sc3ccc(F)cc3c2-c2c(OC(=O)CCC)c(C)nn(C)c2=O)cc1 [2-033] | 4 (Herbicidal rate of 70% or more and less than 90%)
27 | Cc1nn(C)c(=O)c(-c2c(-c3ccc(F)cc3)sc3ccc(F)cc23)c1O [2-001] | 3 (Herbicidal rate of 40% or more and less than 70%)

Each molecule was assayed on oval-leafed pondweed (assay: Test Example 1: herbicidal activity, application before weed generation under submerged conditions (Table 16, symbol C)). Settings: 320 g/ha applied herbicide.
Format: in vivo, oval-leafed pondweed (Monochoria vaginalis)
Procedure, shortened: as §3

Row | Structure (SMILES) | Herbicidal effect on C: oval-leafed pondweed (grade 0-5)
28 | Cc1nn(C)c(=O)c(-c2c(-c3ccc(OC(F)F)cc3)sc3ccccc23)c1O [1-201] | 1 (Herbicidal rate of 5% or more and less than 20%)
29 | CCCOc1ccc(-c2sc3ccc(F)cc3c2-c2c(OC(=O)CCC)c(C)nn(C)c2=O)cc1 [2-033] | 4 (Herbicidal rate of 70% or more and less than 90%)
30 | Cc1nn(C)c(=O)c(-c2c(-c3ccc(F)cc3)sc3ccc(F)cc23)c1O [2-001] | 1 (Herbicidal rate of 5% or more and less than 20%)

What follows are molecules tested on rice flat sedge (assay: Test Example 3: herbicidal effect by foliage application, Wagner pot (Table 18, symbol E)). Settings: 320 g/ha.
Format: in vivo, rice flat sedge (Cyperus iria)
Procedure, shortened: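 Plants were sown in alluvial soil held under 0.1–0.5 cm standing water and grown 14 days in a greenhouse at 25–30 °C. An emulsifiable formulation, water-diluted to the set dose, was then sprayed onto the foliage, and effects were scored three weeks later using previously defined criteria.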

Row | Structure (SMILES) | herbicidal effect on E (rice flat sedge), rating 0-5
31 | Cc1nn(C)c(=O)c(-c2c(-c3ccc(OC(F)F)cc3)sc3ccccc23)c1O [1-201] | 5 (Herbicidal rate of 90% or more (almost completely withered))
32 | CCCOc1ccc(-c2sc3ccc(F)cc3c2-c2c(OC(=O)CCC)c(C)nn(C)c2=O)cc1 [2-033] | 5 (Herbicidal rate of 90% or more (almost completely withered))
33 | Cc1nn(C)c(=O)c(-c2c(-c3ccc(F)cc3)sc3ccc(F)cc23)c1O [2-001] | 5 (Herbicidal rate of 90% or more (almost completely withered))

The molecules below were run on barnyard grass (assay: Test Example 4: herbicidal effect by soil treatment (Table 19, symbol H)). Settings: 320 g/ha.
Format: in vivo, barnyard grass (Echinochloa crus-galli)
Procedure, shortened: as §2

Row | Structure (SMILES) | herbicidal effect rating, H: barnyard grass
34 | CCCOc1ccc(-c2sc3ccc(F)cc3c2-c2c(OC(=O)CCC)c(C)nn(C)c2=O)cc1 [2-033] | 0 (Herbicidal rate of 5% or less (almost no effect))

Same assay, conditions: AAH 320 g/ha

Row | Structure (SMILES) | H: barnyard grass, herbicidal effect rating
35 | Cc1nn(C)c(=O)c(-c2c(-c3ccc(OC(F)F)cc3)sc3ccccc23)c1O [1-201] | 5 (Herbicidal rate of 90% or more (almost completely withered))
36 | Cc1nn(C)c(=O)c(-c2c(-c3ccc(F)cc3)sc3ccc(F)cc23)c1O [2-001] | 3 (Herbicidal rate of 40% or more and less than 70%)

The molecules below were run on chickweed (assay: Test Example 4: herbicidal effect by soil treatment (Table 19, symbol P)). Settings: 320 g/ha.
Format: in vivo, common chickweed (Stellaria media)
Procedure, shortened: as §2

Row | Structure (SMILES) | herbicidal effect rating, P: chickweed
37 | CCCOc1ccc(-c2sc3ccc(F)cc3c2-c2c(OC(=O)CCC)c(C)nn(C)c2=O)cc1 [2-033] | 4 (Herbicidal rate of 70% or more and less than 90%)

Same assay, conditions: AAH 320 g/ha

Row | Structure (SMILES) | P: chickweed, herbicidal effect rating
38 | Cc1nn(C)c(=O)c(-c2c(-c3ccc(OC(F)F)cc3)sc3ccccc23)c1O [1-201] | 4 (Herbicidal rate of 70% or more and less than 90%)
39 | Cc1nn(C)c(=O)c(-c2c(-c3ccc(F)cc3)sc3ccc(F)cc23)c1O [2-001] | 4 (Herbicidal rate of 70% or more and less than 90%)

Each molecule was assayed on velvetleaf (assay: Test Example 5: herbicidal effect by foliage application, plastic box (Table 20, symbol M)). Settings: foliage application, 320 g/ha, 3 weeks after application.
Format: in vivo, velvetleaf (Abutilon theophrasti)
Procedure, shortened: as §1

Row | Structure (SMILES) | effect on velvetleaf (M)
40 | Cc1nn(C)c(=O)c(-c2c(-c3ccc(OC(F)F)cc3)sc3ccccc23)c1O [1-201] | 5 (Herbicidal rate of 90% or more (almost completely withered))
41 | CCCOc1ccc(-c2sc3ccc(F)cc3c2-c2c(OC(=O)CCC)c(C)nn(C)c2=O)cc1 [2-033] | 5 (Herbicidal rate of 90% or more (almost completely withered))
42 | Cc1nn(C)c(=O)c(-c2c(-c3ccc(F)cc3)sc3ccc(F)cc23)c1O [2-001] | 5 (Herbicidal rate of 90% or more (almost completely withered))
